The values below come from US6734177B2, “Certain salts of discodermolide acid, pharmaceutical compositions containing them and their use in treating tumors” (Novartis AG, priority 2001, dated 2004).

For experiment [1], the system named is 1A9PTX22 ovarian carcinoma. The experiment in a line: Hollow fiber in vivo tumor cell cultivation model in athymic nude mice. Further details: species or system human. To be noted: for Experiment #1 % T/C ± SEM / Experiment #2 % T/C ± SEM: 1A9PTX22 hollow fibers s.c., day 7, Paclitaxel 15 mg/kg i.v. daily for 5 days, Ex. 1 45 mg/kg i.v. once; for Average % T/C: 1A9PTX22 hollow fibers, average of experiments #1 and #2. From the text:
(§1) Utilizing this model, one can measure the ability of test compounds to inhibit the growth of human tumor cells in hollow fibers growing subcutaneously (s.c.) in athymic nude mice. The histologic tumor types employed were MIP 101 colon carcinoma, HCT-116 colon carcinoma, 1A9PTX22 ovarian carcinoma, and 1A9 ovarian carcinoma.
(§2) The HCT 116 human colon tumor cell line was obtained from the American Type Culture Collection, Rockville, Md. The MIP 101 human colon tumor cell line was obtained from Dr. Robert Kramer (Bristol Meyers Squibb) and was previously described (Niles R M, Wilhelm S A, Steele G D JR, Burke B, Christensen T, Dexter D, O'Brien M J, Thomas P, Zamcheck N. Isolation and characterization of an undifferentiated human colon carcinoma cell line (MIP-101). Cancer Invest. 1987;5(6):545-52.). The 1A9 and the 1A9PTX22 ovarian tumor cell lines were obtained from Dr. Toto Fojo, Medicine Branch, Division of Clinical Sciences, National Cancer Institute, National Institutes of Health, Bethesda, Md. 20892. The 1A9 is a clone of the ovarian carcinoma cell line, A2780 (Balachandran R, ter Haar E, Welsh M J, Grant S G, Day B W. The potent microtubule-stabilizing agent (+)-discodermolide induces apoptosis in human breast carcinoma cells-preliminary comparisons to paclitaxel. Anti-Cancer Drugs 1998; 9:67-76. [Errata: Anti-Cancer Drugs 1998: 9:369-370]). The 1A9PTX22 subline was isolated as an individual clone from the 1A9 cell line in a single step selection by exposure to 5 ng/mL paclitaxel in the presence of 5 μg/mL of verapamil. […] Resistance to paclitaxel was maintained after two years of culturing in drug-free media, and was attributed to the Ala^364→Thr mutation in β-tubulin that was found in the 1A9PTX22 cell line. All cell lines were propagated and expanded in RPMI 1640 medium containing 10% heat-inactivated FBS (Life Technologies, Grand Island, N.Y.) in a tissue culture incubator (37° C., controlled, humidified atmosphere containing 5% CO2). Cell expansions were performed in T75 tissue culture flasks (Costar®, Corning, N.Y.). For hollow fiber preparations, cells were harvested at 70-90% confluency using 0.25% Trypsin-EDTA (Life Technologies, Grand Island, N.Y.).
(§3) PVDF hollow fibers (Spectrum, Gardena, Calif.) were soaked in 70% EtOH for 72 hours before use. After this step, all handling of fibers was done under a biological laminar flow hood using aseptic procedures. Individual fibers were flushed with 3 mL of ice-cold tissue culture media using a syringe equipped with a 20-gauge needle. Next, each fiber was filled with an appropriate cell suspension (1×10^6 cells/mL for the 1A9 and 1A9PTX22 cells, and 0.3×10^6 cells/mL for the HCT 116 and MIP 101 cells), and both ends of the fiber were sealed with a hot flat needle holder. The entire length of the fiber was then sealed into 1.5 cm microcapsules (further called “hollow fibers”), each containing approximately 15 μL of the appropriate cell suspension. After separation, individual hollow fibers were placed in 6 well plates (6 fibers in 5 mL media per well), and were incubated overnight at 37° C. in the tissue culture incubator.
(§4) Outbred athymic (nu/nu) female mice (“Chrls:Athymic Nude-nu”, Charles River Laboratories, Wilmington, Mass.) were anesthetized with ip injections of Ketamine/Xylazine (150 mg/kg, and 12 mg/kg body weight, respectively). For the subcutaneous implantation an 11-gauge trocar containing one or two hollow fibers was inserted through an incision made with scissors at the nape of the neck of an animal, and fibers were released by retracting the trocar while depressing the plunger. This procedure was repeated until all four hollow fibers were implanted. One wound clip was used to close the skin incision. After the surgery each animal received a single, subcutaneous injection of 0.4 mg/kg butorphenol to relieve any potential pain. Animals recovered from the anesthesia on a heating pad, before returning to their cages. […]

The next experiment relates to MIP 101 colon carcinoma. Described as above. Further details: species or system human. To be noted: for Experiment #1 % T/C ± SEM / Experiment #2 % T/C ± SEM: MIP 101 hollow fibers s.c., day 7, Paclitaxel 15 mg/kg i.v. daily for 5 days, Ex. 1 45 mg/kg i.v. once; for Average % T/C: MIP 101 hollow fibers, average of experiments #1 and #2.
Description: as §1, §2, §3, §4

The next experiment concerns 1A9 ovarian carcinoma. The description is as above. Further details: species or system human.
Description: as §1, §2, §3, §4

A further experiment deals with HCT-116 colon carcinoma. Described as above. To be noted: for Experiment #1 % T/C ± SEM / Experiment #2 % T/C ± SEM: HCT 116 hollow fibers s.c., day 7, Paclitaxel 15 mg/kg i.v. daily for 5 days, Ex. 1 45 mg/kg i.v. once; for Average % T/C: HCT 116 hollow fibers, average of experiments #1 and #2. Also noted: species or system human.
Description: as §1, §2, §3, §4

For the next experiment, the system named is 1A9PTX22 cell line. The conditions noted are these: 1A9PTX22 vs parental 1A9; cited from earlier work.
[2] abbreviates: 1A9 hollow fibers s.c., day 7, Paclitaxel 15 mg/kg i.v. daily for 5 days, Ex. 1 45 mg/kg i.v. once.
Setting [3] is: 1A9 hollow fibers, average of experiments #1 and #2.

Take `C=C/C=C\[C@H](C)[C@H](OC(N)=O)[C@@H](C)[C@@H](O)[C@@H](C)C/C(C)=C\[C@H](C)[C@@H](O)[C@@H](C)/C=C\[C@@H](O)C[C@H](O)[C@H](C)[C@H](O)[C@@H](C)C(=O)[O-].[Na+]` [Ex. 1, (2R,3S,4S,5S,7S,8Z,10S,11S,12S,13Z,16S,17S,18S,19S,20S,21Z)-19-[(aminocarbonyl)oxy]-3,5,7,11,17-pentahydroxy-2,4,10,12,14,16,18,20-octamethyl-8,13,21,23-tetracosatetraenoic acid, sodium salt]: the “Experiment #1 % T/C ± SEM” value was 6 ± 2 % in experiment [1], 50 ± 9 % with MIP 101 colon carcinoma, 14 ± 4 % in the experiment on 1A9 ovarian carcinoma (setting [2]) and 15 ± 4 % in the experiment on HCT-116 colon carcinoma. The “Experiment #2 % T/C ± SEM” value in experiment [1] was found to be 16 ± 7 %; in the experiment on MIP 101 colon carcinoma, 90 ± 9%; with 1A9 ovarian carcinoma (1A9 hollow fibers s.c., day 7, Ex. 1 45 mg/kg i.v. once), 23 ± 8 %; with HCT-116 colon carcinoma, 10 ± 3 %. Moreover, the “Average % T/C” value in experiment [1] is on record as 11%; in the experiment on MIP 101 colon carcinoma, 70%; with 1A9 ovarian carcinoma (setting [3]) it was 19%; with HCT-116 colon carcinoma, 13%.
For the molecule `CC(=O)O[C@H]1C(=O)[C@@]2(C)[C@H]([C@H](OC(=O)c3ccccc3)[C@]3(O)C[C@H](OC(=O)[C@H](O)[C@@H](NC(=O)c4ccccc4)c4ccccc4)C(C)=C1C3(C)C)[C@]1(OC(C)=O)CO[C@@H]1C[C@@H]2O` [paclitaxel], the “Resistance to paclitaxel of 1A9PTX22 relative to parental 1A9” value in the experiment with 1A9PTX22 cell line is recorded as 24 fold. For the same molecule, the “Experiment #1 % T/C ± SEM” value in experiment [1] is recorded as 109 ± 16%; in the experiment with MIP 101 colon carcinoma, 113 ± 10%; in the experiment with 1A9 ovarian carcinoma (setting [2]) it was 1 ± 3 %; in the experiment on HCT-116 colon carcinoma it was 2 ± 1 %. For the same molecule, the “Experiment #2 % T/C ± SEM” value in experiment [1] stood at 84 ± 8%; in the experiment on MIP 101 colon carcinoma, 112 ± 11%; in the experiment on HCT-116 colon carcinoma, 1 ± 2 %. Moreover, the “Average % T/C” value in experiment [1] amounted to 97%; in the experiment with MIP 101 colon carcinoma it was 113%; in the experiment with HCT-116 colon carcinoma, 1%. Further, the “Experiment #2 regression (Reg.)” value in the experiment with 1A9 ovarian carcinoma (1A9 hollow fibers s.c., day 7, Paclitaxel 15 mg/kg i.v. daily for 5 days, regression = (1−Mean T/Mean T0)×100%) was determined as 53% Reg.**. Further, the “Average regression (Reg.)” value in the experiment with 1A9 ovarian carcinoma (setting [3]) was determined as 26% Reg.
